According to patent US20240000879A1, “HERBAL COMPOSITIONS WITH IMPROVED BIOAVAILABILITY” (priority 2017, published 2024):

Test: Herbal composition/SNAC oral rat pharmacokinetic (PK) study (Example 5)
Format: in vivo
Conditions: rats; for increase in AUC0-Tlast / increase in Cmax: oral, 50 mg/kg cannabis extract + 500 mg/kg SNAC; for time to reach the mean maximum plasma concentration (Tmax): single oral gavage
Experimental: Example 5. Summary of an herbal composition/SNAC oral rat pharmacokinetic (PK) study.
Methods. Animals were dosed on Day 1 and a series of blood samples were collected over a period of 4 hours post dose for pharmacokinetic evaluation. Animals were euthanized following collection of their last blood sample.

SMILES	increase in AUC0-Tlast [fold]	increase in Cmax [fold]	time to reach the mean maximum plasma concentration (Tmax) (high dose group (50 mg extract/kg + 500 mg SNAC/kg)) [hours post dose]	time to reach the mean maximum plasma concentration (Tmax) (low and mid dose groups (25 mg extract/kg + 250 or 500 mg SNAC/kg)) [hour post dose]
CCCCCc1cc(O)c2c(c1)OC(C)(C)[C@@H]1CCC(C)=C[C@@H]21 [THC]	6.3	6.9	2	1
C=C(C)[C@@H]1CCC(C)=C[C@H]1c1c(O)cc(CCCCC)cc1O [CBD]	22.1	14.2		
